These results are taken from patent US20210038559A1, “CANNABINOIDS AND DERIVATIVES FOR PROMOTING IMMUNOGENICITY OF TUMOR AND INFECTED CELLS” (priority 2018, published 2021).

For this assay, the system named is MHC-I expression by COLO 205 cells. Nature of the assay: cells. Format: cell-based, human. The settings on record: for fold induction at 35 µM: Homo sapiens, COLO 205, 48 h, read-out: Induction Fold. The protocol: A panel of synthetic cannabinoids (Cayman Chemical, #9002891) was tested for MHC class I-inducing capability in COLO 205 cells as described above. COLO 205 cells were treated with the compounds at a concentration of 35 μM and evaluated for cell surface MHC class I expression after 48 hours. Cells were harvested, stained with MHC-I mAb W6/32 (Thermo Fisher). MHC-I expression was determined by flow cytometry.

[1] abbreviates: MHC-I expression, COLO 205 cells, compounds at 35 μM, 48 hours, flow cytometry (W6/32).

Where two headings read alike, the source gives them in different places.

Take `CC(C)[C@H](NC(=O)c1nn(CC2CCCCC2)c2ccccc12)C(N)=O` [Example 67, N-[(1S)-1-(aminocarbonyl)-2-methylpropyl]-1-(cyclohexylmethyl)-1H-indazole-3-carboxamide]: the fold induction at 35 µM under setting [1] is 2.75. On to “[5-(2-chlorophenyl)-1-pentyl-1H-pyrrol-3-yl]-1-naphthalenyl-methanone [Example 63]”, for which the “Induction Fold” value is on record as 2.77 Fold. For the compound `O=C(Oc1cccc2cccnc12)c1cn(CC2CCCCC2)c2ccccc12` [Example 38, 1-(cyclohexylmethyl)-8-quinolinyl ester-1H-indole-3-carboxylic acid], the “Induction Fold” value is reported as 3.15 Fold. In the case of `O=C(c1cccc2ccccc12)c1nn(CCCCCF)c2ccccc12` [Example 134, [1-(5-fluoropentyl)-1H-indazol-3-yl]-1-naphthalenyl-methanone], the “Induction Fold” value is reported as 2.23 Fold. On to `NC(=O)[C@H](Cc1ccccc1)NC(=O)c1cn(CCCCCF)c2ccccc12` [Example 267, (S)-N-(1-amino-1-oxo-3-phenylpropan-2-yl)-1-(5-fluoropentyl)-1H-indole-3-carboxamide], for which the fold induction at 35 µM under setting [1] is 1.55. On the same count and under the same terms, to `O=C(Oc1ccnc2ccccc12)c1cn(CC2CCCCC2)c2ccccc12` [Example 9, quinolin-4-yl 1-(cyclohexylmethyl)-1H-indole-3-carboxylate] belongs 5.41.

On to `CCCCCn1cc(C(=O)c2cccc3ccc(C)cc23)c2ccccc21` [Example 161, (7-methyl-1-naphthalenyl)(1-pentyl-1H-indol-3-yl)-methanone], for which the fold induction at 35 µM under setting [1] worked out at 2.06.

`CCCC(F)CCn1cc(C(=O)c2cccc3ccccc23)c2ccccc21` (centres unmarked) [Example 176, (1-(3-fluorohexyl)-1H-indol-3-yl)(naphthalen-1-yl)methanone]: under setting [1], the fold induction at 35 µM is 1.95.

`CC(C)(C)C(NC(=O)c1nn(Cc2ccc(F)cc2)c2ccccc12)C(N)=O` (centres unmarked) [Example 247, N-[1-(aminocarbonyl)-2,2-dimethylpropyl]-1-[(4-fluorophenyl)methyl]-1H-indazole-3-carboxamide]: the fold induction at 35 µM under setting [1] stood at 1.64.

`O=C(OC12CC3CC(CC(C3)C1)C2)c1nn(CCCCCF)c2ccccc12` [Example 358, (3s,5s,7s)-adamantan-1-yl 1-(5-fluoropentyl)-1H-indazole-3-carboxylate]: under setting [1], the “Induction Fold” value turned out to be 1.02 Fold. Regarding `CC[C@H](C)[C@H](NC(=O)c1nn(CCCCCF)c2ccccc12)C(N)=O` (single isomer, unassigned) [Example 298], the fold induction at 35 µM under setting [1] worked out at 1.42. In the case of `O=C(c1cccc2ccccc12)c1cn(CCCCCCl)c2ccccc12` [Example 177, (1-(5-chloropentyl)-1H-indol-3-yl)(naphthalen-1-yl)methanone], the fold induction at 35 µM under setting [1] worked out at 1.94. As to `CCCCCn1cc(C(=O)C23CC4CC(CC(C4)C2)C3)c2ccccc21` [Example 245, (1s,3s)-adamantan-1-yl(1-pentyl-1H-indol-3-yl)methanone], under setting [1], the “Induction Fold” value turned out to be 1.66 Fold. Take `CC(C)[C@H](NC(=O)c1cc(-c2ccc(F)cc2)nn1CCCCCF)C(N)=O` [Example 321, (S)-N-(1-amino-3-methyl-1-oxobutan-2-yl)-1-(5-fluoropentyl)-3-(4-fluorophenyl)-1H-pyrazole-5-carboxamide]: under setting [1], the fold induction at 35 µM is 1.29. Turning to `CCC(C)(C)n1cc(C(=O)c2cccc3ccccc23)c2ccccc21` [Example 103, naphthalen-1-yl(1-(tert-pentyl)-1H-indol-3-yl)methanone], the fold induction at 35 µM under setting [1] was 2.41. For the compound `CCCCCn1nc(C(=O)c2cccc3ccccc23)c2ccccc21` [Example 149, 1-naphthalenyl(1-pentyl-1H-indazol-3-yl)-methanone], under setting [1], the “Induction Fold” value is reported as 2.14 Fold. On to `COc1ccc(CC(=O)c2cn(CCC3CCCCC3)c3ccccc23)cc1` [Example 44, 1-(1-(2-cyclohexylethyl)-1H-indol-3-yl)-2-(4-methoxyphenyl)ethanone], for which the fold induction at 35 µM under setting [1] was 3.03. For the compound `CCCC(F)Cn1cc(C(=O)C2C(C)(C)C2(C)C)c2ccccc21` (centres unmarked) [Example 153, [1-(2-fluoropentyl)-1H-indol-3-yl] (2,2,3,3-tetramethylcyclopropyl)-methanone], the fold induction at 35 µM under setting [1] came to 2.11. With `CC(C)(C)Cn1cc(C(=O)c2ccc3ccccc3c2)c2ccccc21` [Example 168, [1-(2,2-dimethylpropyl)-1H-indol-3-yl]-2-naphthalenyl-methanone], the fold induction at 35 µM under setting [1] turned out to be 2.01. `CCCCCn1cc(C(=O)Cc2ccc(Cl)cc2)c2ccccc21` [Example 64, 2-(4-chlorophenyl)-1-(1-pentyl-1H-indol-3-yl)-ethanone]: the fold induction at 35 µM under setting [1] is 2.77. As to `CC1(C)C(C(=O)N/N=C2\C(=O)N(CCCCCF)c3ccccc32)C1(C)C` [Example 111, 2,2,3,3-tetramethyl-cyclopropanecarboxylic acid (2Z)-2-[1-(5-fluoropentyl)-1,2-dihydro-2-oxo-3H-indol-3-ylidene]hydrazide], under setting [1], the fold induction at 35 µM was determined as 2.37. Turning to `CCCCCCC(C)(C)c1ccc([C@@H]2CCC[C@H](O)C2)c(O)c1` (relative stereo) [Example 353, rel-5-(1,1-dimethylheptyl)-2-[(1R,3S)-3-hydroxycyclohexyl]-phenol], the fold induction at 35 µM under setting [1] turned out to be 1.06. Take `C#CCCCCCCCCCNC(=O)Oc1cccc(-c2cccc(C(N)=O)c2)c1` [Example 182, 3′-carbamoyl-biphenyl-3-yl-undecynecarbamate]: the “Induction Fold” value turned out to be 1.93 Fold.

`CCCCCn1nc(C(=O)Nc2cccc3ccccc23)c2ccccc21` [Example 224, N-1-naphthalenyl-1-pentyl-1H-indazole-3-carboxamide]: the fold induction at 35 µM under setting [1] worked out at 1.75.

For the compound `COCCn1c(C)c(C)sc1=NC(=O)C1C(C)(C)C1(C)C` [Example 95, [N(Z)]-N-[3-(2-methoxyethyl)-4,5-dimethyl-2(3H)-thiazolylidene]-2,2,3,3-tetramethyl-cyclopropanecarboxamide], under setting [1], the “Induction Fold” value was 2.44 Fold. For `CCCCCn1nc(C(=O)Oc2cccc3ccccc23)c2ccccc21` [Example 171, naphthalen-1-yl 1-pentyl-1H-indazole-3-carboxylate], under setting [1], the fold induction at 35 µM came to 1.99. The same measure, in the same setting: to `CCCCCn1c(C)c(C(=O)c2ccc(OC)c3ccccc23)c2ccccc21` [Example 372, (4-methoxy-1-naphthalenyl)(2-methyl-1-pentyl-1H-indol-3-yl)-methanone] belongs 0.6; to `O=C(Oc1cccc2ncccc12)c1cn(CCCCCF)c2ccccc12` [Example 158, quinolin-5-yl 1-(5-fluoropentyl)-1H-indole-3-carboxylate], 2.07; to `CCOC(=O)[C@@H](NC(=O)c1nn(CCCCCF)c2ccccc12)C(C)C` [Example 236, ethyl (1-(5-fluoropentyl)-1H-indazole-3-carbonyl)-L-valinate], 1.7. For the compound `O=C(Oc1ccc2ccncc2c1)c1cn(CC2CCCCC2)c2ccccc12` [Example 254, isoquinolin-7-yl 1-(cyclohexylmethyl)-1H-indole-3-carboxylate], the fold induction at 35 µM under setting [1] was determined as 1.6. Regarding `O=C(Oc1ccc2cnccc2c1)c1cn(CCCCCF)c2ccccc12` [Example 218, isoquinolin-6-yl 1-(5-fluoropentyl)-1H-indole-3-carboxylate], under setting [1], the fold induction at 35 µM is 1.78. Turning to “[5-(3-fluorophenyl)-1-pentyl-1H-pyrrol-3-yl]-1-naphthalenyl-methanone [Example 109]”, the “Induction Fold” value is on record as 2.37 Fold. Take `CCCCCn1nc(C(=O)OC23CC4CC(CC(C4)C2)C3)c2ccccc21` [Example 243, (3s,5s,7s)-adamantan-1-yl 1-pentyl-1H-indazole-3-carboxylate]: the “Induction Fold” value under setting [1] turned out to be 1.67 Fold. In the case of `CC(C)[C@H](NC(=O)c1nn(CCCCCCl)c2ccccc12)C(N)=O` [Example 170, N-[(1S)-1-(aminocarbonyl)-2-methylpropyl]-1-(5-chloropentyl)-1H-indazole-3-carboxamide], the fold induction at 35 µM under setting [1] was found to be 2.01.

Consider `COC(=O)[C@@H](NC(=O)c1nn(CCCC(C)F)c2ccccc12)C(C)(C)C` (stereo partly drawn) [Example 84, methyl (2S)-2-(1-(4-fluoropentyl)-1H-indazole-3-carboxamido)-3,3-dimethylbutanoate], for which the fold induction at 35 µM under setting [1] was 2.53. Consider `O=C(Nc1cccc2ccccc12)c1cn(CCCCCF)c2ccncc12` [Example 373, 1-(5-fluoropentyl)-N-(naphthalen-1-yl)-1H-pyrrolo[3,2-c]pyridine-3-carboxamide], for which the fold induction at 35 µM under setting [1] stood at 0.49. Turning to “(1-butyl-6-methoxy-1H-indol-3-yl)-1-naphthalenyl-methanone [Example 107]”, the “Induction Fold” value worked out at 2.39 Fold. Take `COc1ccc(C(=O)c2c(C)n(CCN3CCOCC3)c3ccccc23)cc1` [Example 308]: the fold induction at 35 µM under setting [1] was 1.38. As to `Cc1ccc(C(=O)c2cn(CCCC(C)F)c3ccccc23)c2ccccc12` (centres unmarked) [Example 145, (1-(4-fluoropentyl)-1H-indol-3-yl)(4-methylnaphthalen-1-yl)methanone], the fold induction at 35 µM under setting [1] came to 2.16. Turning to `CC1(C)C(C(=O)c2cn(CC3CCOCC3)c3ccccc23)C1(C)C` [Example 260, [1-[(tetrahydro-2H-pyran-4-yl)methyl]-1H-indol-3-yl](2,2,3,3-tetramethylcyclopropyl)-methanone], the fold induction at 35 µM under setting [1] worked out at 1.57. `O=C(c1cn(CCCCCF)c2ccccc12)C12CC3CC(CC(C3)C1)C2` [Example 160, [1-(5-fluoropentyl)-1H-indol-3-yl]tricyclo[3.3.1.13,7]dec-1-yl-methanone]: the fold induction at 35 µM under setting [1] is 2.06.
